Values after ≈ are worked out from the molar mass of the structure shown. Where two headings read alike, the source gives them in different places.
Key:
Test in all cases: Antibacterial activity (MIC), agar dilution
Format in all cases: cell-based
[1] = test system: E. coli GN5482**; details: Escherichia coli, 20 h; E. coli GN5482, cephalospolinase-producing; 10^6 cells per ml; read-out: MIC
Text: (§1) The amount of bacteria inoculated was 10^4 cells per plate (10^6 cells per ml).
(§2) ** Cephalospolinase-producing bacteria

[2] = test system: Pro. vulgaris GN76**; details: Proteus vulgaris
Text: as §1, §2

[3] = test system: Ps. aeruginosa GN918**; details: Pseudomonas aeruginosa, Ps. aeruginosa GN918, cephalospolinase-producing, 10^6 cells per ml
Text: as §1, §2

[4] = test system: St. aureus FDA209P; details: Staphylococcus aureus, FDA209P, 20 h
Text: as §1

[5] = test system: Pro. morganii T-216; details: Morganella morganii, 37° C.
Text: as §1

[6] = test system: Kl. pneumoniae Y-50; details: Klebsiella pneumoniae, Y50, 20 h, 10^6 cells per ml, 37° C., read-out: MIC
Text: as §1

[7] = test system: Aci. antitratus A-6; details: 20 h
Text: as §1

[8] = test system: E. coli NIHJ JC-2; details: Escherichia coli, NIHJJC2, 20 h
Text: as §1

[9] = test system: Kl. pneumoniae Y-41; details: Klebsiella pneumoniae, Y41, 10^6 cells per ml, 37° C., 20 hours, read-out: MIC
Text: as §1

[10] = test system: Pro. mirabilis T-111; details: Proteus mirabilis, 37° C.
Text: as §1

[11] = test system: Ps. aeruginosa S-68; details: Pseudomonas aeruginosa
Text: as §1

[12] = test system: Ent. cloacae IID977; details: Enterobacter cloacae, IID977, 20 h
Text: as §1

[13] = test system: E. coli TK-111; details: Escherichia coli, TK111, 20 h
Text: as §1

[14] = test system: Pro. vulgaris GN3027; details: Proteus vulgaris, GN3027, 20 h, Pro. vulgaris GN3027; 10^6 cells per ml; 37° C., 20 hours; read-out: MIC
Text: as §1

[15] = test system: Ps. aeruginosa IFO3445; details: Pseudomonas aeruginosa
Text: as §1

[16] = test system: St. aureus F-137*; details: Staphylococcus aureus, 20 h
Text: as §1
(§3) * Penicillinase-producing bacteria

[17] = test system: Kl. pneumoniae Y-4*; details: Klebsiella pneumoniae, 20 h, Kl. pneumoniae Y-4, penicillinase-producing; 10^6 cells per ml; read-out: MIC
Text: as §1, §3

[18] = test system: E. coli TK-3*; details: Escherichia coli, 20 h
Text: as §1, §3

[19] = test system: Ps. aeruginosa GN3379*; details: Pseudomonas aeruginosa, Ps. aeruginosa GN3379, penicillinase-producing, 10^6 cells per ml
Text: as §1, §3

[20] = St. aureus FDA209P, 10^6 cells per ml, 37° C., 20 hours, read-out: MIC
[21] = T216, 10^6 cells per ml, 20 hours, read-out: MIC
[22] = E. coli NIHJ JC-2, 10^6 cells per ml, 37° C., 20 hours, read-out: MIC
[23] = T111, 10^6 cells per ml, 20 hours, read-out: MIC
[24] = S68, Ps. aeruginosa S-68, 10^6 cells per ml, 37° C., 20 hours, read-out: MIC
[25] = Ent. cloacae IID977, 10^6 cells per ml, 37° C., 20 hours, read-out: MIC
[26] = E. coli TK-111, 10^6 cells per ml, 37° C., 20 hours, read-out: MIC
[27] = Ps. aeruginosa IFO3445, 10^6 cells per ml, 37° C., 20 hours, read-out: MIC
[28] = E. coli TK-3, penicillinase-producing, 10^6 cells per ml, read-out: MIC
[29] = St. aureus F-137, penicillinase-producing, 10^6 cells per ml, read-out: MIC
[30] = 20 h, Pro. vulgaris GN76, cephalospolinase-producing, 10^6 cells per ml, read-out: MIC
[31] = Aci. antitratus A-6, 10^6 cells per ml, 37° C., 20 hours, read-out: MIC

SMILES	MIC [1]	MIC ([2]; GN76, 20 h)	MIC ([3]; 20 h, read-out: MIC)	MIC [4, 20]	MIC [5, 21]	MIC [6]	MIC [7]	MIC [8, 22]	MIC [9]	MIC [10, 23]	MIC [12, 25]	MIC [13, 26]	MIC [14]	MIC [15, 27]	MIC [17]	MIC [18, 28]	MIC ([19]; 20 h, read-out: MIC)	MIC ([11]; S68, 20 h)	MIC [16, 29]	MIC [7, 31]	also measured
CN(C)c1ccc(-c2cc(=O)c(C(=O)O)cn2-c2ccc(OS(=O)(=O)O)cc2)cc1	0.2 µg/mL (≈ 0.465 µM)	3.13 µg/mL (≈ 7.27 µM)	12.5 µg/mL (≈ 29 µM)	0.78 µg/mL (≈ 1.81 µM)	12.5 µg/mL (≈ 29 µM)	3.13 µg/mL (≈ 7.27 µM)	3.13 µg/mL (≈ 7.27 µM)	1.56 µg/mL (≈ 3.62 µM)	25 µg/mL (≈ 58.1 µM)	25 µg/mL (≈ 58.1 µM)	12.5 µg/mL (≈ 29 µM)	0.78 µg/mL (≈ 1.81 µM)	1.56 µg/mL (≈ 3.62 µM)	50 µg/mL (≈ 116 µM)	25 µg/mL (≈ 58.1 µM)	6.25 µg/mL (≈ 14.5 µM)	50 µg/mL (≈ 116 µM)				MIC [11, 24]: 25 µg/mL (≈ 58.1 µM); MIC [16]: 3.13 µg/mL (≈ 7.27 µM)
O=C(O)c1cn(-c2ccc(O)cc2)c(C2CC=CCC2)cc1=O (stereo not drawn)	0.39 µg/mL (≈ 1.25 µM)	1.56 µg/mL (≈ 5.01 µM)			3.13 µg/mL (≈ 10.1 µM)	1.56 µg/mL (≈ 5.01 µM)	6.25 µg/mL (≈ 20.1 µM)		6.25 µg/mL (≈ 20.1 µM)				0.39 µg/mL (≈ 1.25 µM)		12.5 µg/mL (≈ 40.1 µM)		25 µg/mL (≈ 80.3 µM)	12.5 µg/mL (≈ 40.1 µM)	3.13 µg/mL (≈ 10.1 µM)		MIC ([3]; GN918, 20 h): 1.56 µg/mL (≈ 5.01 µM); MIC [4]: 1.56 µg/mL (≈ 5.01 µM); MIC [8]: 6.25 µg/mL (≈ 20.1 µM); MIC ([10]; T111, 20 h, 10^6 cells per ml): 12.5 µg/mL (≈ 40.1 µM); MIC [12]: 6.25 µg/mL (≈ 20.1 µM); MIC [13]: 1.56 µg/mL (≈ 5.01 µM); MIC ([15]; IFO3445, 20 h): 12.5 µg/mL (≈ 40.1 µM); MIC [18]: 6.25 µg/mL (≈ 20.1 µM)
Cc1cc(O)ccc1-n1cc(C(=O)O)c(=O)cc1C1=CCCC1	0.1 µg/mL (≈ 0.321 µM)		3.13 µg/mL (≈ 10.1 µM)	0.78 µg/mL (≈ 2.51 µM)		0.39 µg/mL (≈ 1.25 µM)		0.78 µg/mL (≈ 2.51 µM)	1.56 µg/mL (≈ 5.01 µM)	3.13 µg/mL (≈ 10.1 µM)		0.2 µg/mL (≈ 0.642 µM)	0.1 µg/mL (≈ 0.321 µM)		6.25 µg/mL (≈ 20.1 µM)		25 µg/mL (≈ 80.3 µM)	6.25 µg/mL (≈ 20.1 µM)	0.78 µg/mL (≈ 2.51 µM)	0.78 µg/mL (≈ 2.51 µM)	MIC [2, 30]: 0.78 µg/mL (≈ 2.51 µM); MIC ([5]; T216, 20 h, 10^6 cells per ml): 1.56 µg/mL (≈ 5.01 µM); MIC [12]: 1.56 µg/mL (≈ 5.01 µM); MIC ([15]; IFO3445, 20 h): 6.25 µg/mL (≈ 20.1 µM); MIC [18]: 1.56 µg/mL (≈ 5.01 µM)
CC=Cc1cc(=O)c(C(=O)O)cn1-c1ccc(O)cc1C	0.39 µg/mL (≈ 1.37 µM)	1.56 µg/mL (≈ 5.47 µM)	6.25 µg/mL (≈ 21.9 µM)	6.25 µg/mL (≈ 21.9 µM)	3.13 µg/mL (≈ 11 µM)	1.56 µg/mL (≈ 5.47 µM)		3.13 µg/mL (≈ 11 µM)	12.5 µg/mL (≈ 43.8 µM)	25 µg/mL (≈ 87.6 µM)	6.25 µg/mL (≈ 21.9 µM)		0.39 µg/mL (≈ 1.37 µM)	25 µg/mL (≈ 87.6 µM)	25 µg/mL (≈ 87.6 µM)	3.13 µg/mL (≈ 11 µM)	25 µg/mL (≈ 87.6 µM)	12.5 µg/mL (≈ 43.8 µM)		6.25 µg/mL (≈ 21.9 µM)	MIC [13]: 1.56 µg/mL (≈ 5.47 µM); MIC [16]: 12.5 µg/mL (≈ 43.8 µM)
Cc1cc(O)ccc1-n1cc(C(=O)O)c(=O)cc1CCc1ccccc1	0.2 µg/mL (≈ 0.572 µM)	1.56 µg/mL (≈ 4.46 µM)	3.13 µg/mL (≈ 8.96 µM)	0.78 µg/mL (≈ 2.23 µM)	3.13 µg/mL (≈ 8.96 µM)	1.56 µg/mL (≈ 4.46 µM)		3.13 µg/mL (≈ 8.96 µM)	12.5 µg/mL (≈ 35.8 µM)		6.25 µg/mL (≈ 17.9 µM)	0.39 µg/mL (≈ 1.12 µM)	0.1 µg/mL (≈ 0.286 µM)	25 µg/mL (≈ 71.6 µM)	12.5 µg/mL (≈ 35.8 µM)	3.13 µg/mL (≈ 8.96 µM)		12.5 µg/mL (≈ 35.8 µM)	0.78 µg/mL (≈ 2.23 µM)	0.39 µg/mL (≈ 1.12 µM)	MIC ([10]; T111, 20 h, 10^6 cells per ml): 12.5 µg/mL (≈ 35.8 µM); MIC ([19]; GN3379, 20 h): 12.5 µg/mL (≈ 35.8 µM)
CC(=O)Oc1ccc(-n2cc(C(=O)OCC(O)CO)c(=O)cc2-c2ccc(N(C)C)cc2)cc1 (stereo not drawn)	0.1 µg/mL (≈ 0.214 µM)		12.5 µg/mL (≈ 26.8 µM)	1.56 µg/mL (≈ 3.34 µM)	12.5 µg/mL (≈ 26.8 µM)	3.13 µg/mL (≈ 6.71 µM)			25 µg/mL (≈ 53.6 µM)	25 µg/mL (≈ 53.6 µM)	6.25 µg/mL (≈ 13.4 µM)	0.78 µg/mL (≈ 1.67 µM)	0.78 µg/mL (≈ 1.67 µM)	50 µg/mL (≈ 107 µM)	25 µg/mL (≈ 53.6 µM)	6.25 µg/mL (≈ 13.4 µM)	50 µg/mL (≈ 107 µM)		1.56 µg/mL (≈ 3.34 µM)	1.56 µg/mL (≈ 3.34 µM)	MIC [2, 30]: 6.25 µg/mL (≈ 13.4 µM); MIC [8]: 3.13 µg/mL (≈ 6.71 µM); MIC [11, 24]: 25 µg/mL (≈ 53.6 µM)
